Laboratory results reported in US10160747B2, “Compounds and methods for kinase modulation, and indications therefor” (Plexxikon Inc., priority 2016, dated 2018).

Key:
BA/F3-FLT3-ITD + D835Y = target: T1, BA/F3-FLT3-ITD + D835Y (Homo sapiens, UniProt P36888, D835Y, cells depend on it, form not given); test: Engineered BA/F3 cell growth assay, FLT3 ITD/D835Y; format: cell-based, murine; conditions: 3 d growth
T1 sequence (P36888 with tags, fused parts or gaps INS600HVDFREYEYD/D835Y): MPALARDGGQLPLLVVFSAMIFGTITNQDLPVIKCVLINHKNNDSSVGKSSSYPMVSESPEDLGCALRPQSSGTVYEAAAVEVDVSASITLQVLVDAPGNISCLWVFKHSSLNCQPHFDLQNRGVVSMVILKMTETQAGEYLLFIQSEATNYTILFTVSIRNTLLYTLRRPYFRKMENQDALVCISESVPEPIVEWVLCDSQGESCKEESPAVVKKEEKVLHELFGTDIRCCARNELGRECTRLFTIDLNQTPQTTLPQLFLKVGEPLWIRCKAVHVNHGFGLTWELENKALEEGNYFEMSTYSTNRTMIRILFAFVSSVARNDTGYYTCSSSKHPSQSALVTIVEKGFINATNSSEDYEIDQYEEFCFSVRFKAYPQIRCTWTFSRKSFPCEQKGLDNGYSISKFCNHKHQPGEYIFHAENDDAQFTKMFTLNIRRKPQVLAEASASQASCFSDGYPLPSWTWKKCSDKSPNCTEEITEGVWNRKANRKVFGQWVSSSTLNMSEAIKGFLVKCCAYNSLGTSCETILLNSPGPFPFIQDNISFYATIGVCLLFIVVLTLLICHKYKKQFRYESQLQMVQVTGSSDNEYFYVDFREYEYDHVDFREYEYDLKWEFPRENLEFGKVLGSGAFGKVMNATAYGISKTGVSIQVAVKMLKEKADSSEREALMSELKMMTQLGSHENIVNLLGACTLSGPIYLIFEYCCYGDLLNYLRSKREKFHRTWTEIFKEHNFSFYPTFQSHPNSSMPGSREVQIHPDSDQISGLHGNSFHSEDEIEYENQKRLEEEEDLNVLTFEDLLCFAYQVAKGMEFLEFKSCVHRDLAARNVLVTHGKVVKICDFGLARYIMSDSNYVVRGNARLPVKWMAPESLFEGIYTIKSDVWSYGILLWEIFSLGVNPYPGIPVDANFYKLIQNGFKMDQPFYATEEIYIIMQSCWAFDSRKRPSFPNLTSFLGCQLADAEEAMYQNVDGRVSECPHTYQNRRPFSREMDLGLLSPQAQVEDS
Excerpt: (§1) The FLT3 inhibitors may be assessed using the MOLM-14, Acute Myeloid Leukemia cell line that endogenously expresses FLT3 ITD or derivatives of the human FLT3 AML cell line which acquired the D835Y (activation loop) of F691L (gatekeeper) mutation after selection in escalating doses of the FLT3 Inhibitor AC220. FLT3 inhibitors may also be assessed using cells that are engineered to express mutant FLT3. For engineered cells, murine Ba/F3 cells were transfected with full-length FLT3 ITD/D835Y mutations. The parental BA/F3 cells are dependent upon Interleukin-3 (IL-3) for survival, and introduction of the FLT3 constructs rendered these cells dependent upon FLT3 kinase activity when cultured in the absences of IL-3. Engineered BA/F3 cell growth assays can be performed in either the […] of IL-3, to assess the compound inhibition of FLT3 or to detect the presence of off-target activity, respectively. Inhibitors of FLT3 kinase activity reduce or eliminate the FLT3 oncogenic signaling, resulting in reduced cell proliferation. This inhibition is measured as a function of compound concentration to assess IC50 values.
(§2) Cell lines used in proliferation assays are as follows in Table 2:
(§3) Cells were seeded at 1×10^4 cells per well of a 96 well cell culture plate in 50 μl of cell culture medium. Compounds were dissolved in DMSO, typically at a concentration of 0.5 mM and were serially diluted 1:3 for a total of eight points and added to the cells to final concentrations of […], 0.0041, 0.0014 and 0.00046 μM in 100 μl cell culture medium (final concentration 0.2% DMSO). […] The cells were incubated at 37° C., 5% CO2 for three days. CellTiter-Glo Buffer (Promega Cell Viability Assay catalog #G7573) and substrate were equilibrated to room temperature, and enzyme/substrate Recombinant Firefly Luciferase/Beetle Luciferin was reconstituted. The cell plates were equilibrated to room temperature for 30 minutes, then lysed by addition of an equivalent volume of the Celltiter-Glo Reagent. The plate was mixed for 10 minutes on a plate shaker to lyse the cells. The plates were read on a Tecan M1000 using Luminescence protocol modified to read 0.1 s per well. The luminescence reading assesses the ATP content, which correlates directly with cell number such that the reading as a function of compound concentration was used to determine the IC50 value.
The BaF3 assays as developed used to generate the data in Tables 7 and 8 are identical and differ only in minor details in regards to vector design, not biological function. Both introduce the FLT3 gene with MV4-11 based ITD duplications and resistance mutations from an exogenous promoter (MSCV and CMV respectively) in the exact same cell line.
As a result of the expressed FLT3 protein, the IL3 factor dependent BaF3 cell clones become IL3-factor independent.
The compounds in Tables 7 and 8 were tested in an identical fashion by incubating such clones in with increasing concentrations. Inhibition of the FLT3 activity by an inhibitor results in factor dependency, which in the absence of IL3 results in cell death in the three day growth assays.

[1] = system: MOLM-14 D835Y (endogenous FLT3 ITD and transfected FLT3 D835Y); test: MOLM-14 D835Y cell proliferation assay (CellTiter-Glo); format: cell-based; conditions: Homo sapiens, MOLM-14, 72 h; 3 d growth, GMean
Excerpt: as §1, §2, §3

[2] = system: MOLM-14 F691L (endogenous FLT3 ITD and transfected FLT3 F691L); test: MOLM-14 F691L cell proliferation assay (CellTiter-Glo); format: cell-based; conditions: Homo sapiens, MOLM-14, 72 h; 3 d growth, GMean
Excerpt: as §1, §2, §3

For `COc1ncc(NC(=O)Cc2ccc(-c3cnc4[nH]c(-c5ccnc(C#N)c5)cc4c3)nc2)cc1C(F)(F)F` [Compound P-0006, 2-[6-[2-(2-cyano-4-pyridyl)-1H-pyrrolo[2,3-b]pyridin-5-yl]-3-pyridyl]-N-[6-methoxy-5-(trifluoromethyl)-3-pyridyl]acetamide], the GI50 (BA/F3-FLT3-ITD + D835Y) was 0.0001 to 10 µM, the IC50 [1] was 0.0001 to 10 µM and the IC50 [2] was 0.0001 to 10 µM.

Work on `COc1ccc(-c2cc3cc(-c4ccc(CC(=O)Nc5cnc(OC)c(C(F)(F)F)c5)c(F)c4)cnc3[nH]2)cn1` [Compound P-0007, 2-[2-fluoro-4-[2-(6-methoxy-3-pyridyl)-1H-pyrrolo[2,3-b]pyridin-5-yl]phenyl]-N-[6-methoxy-5-(trifluoromethyl)-3-pyridyl]acetamide] yielded a GI50 (BA/F3-FLT3-ITD + D835Y) of 0.0001 to 10 µM, an IC50 [1] of 0.0001 to 10 µM and an IC50 [2] of 0.0001 to 10 µM.

With `COc1ncc(NC(=O)Cc2ccc(-c3cnc4[nH]c(C#CC5CC5)cc4c3)cc2)cc1C(F)(F)F` [Compound P-0008, 2-[4-[2-(2-cyclopropylethynyl)-1H-pyrrolo[2,3-b]pyridin-5-yl]phenyl]-N-[6-methoxy-5-(trifluoromethyl)-3-pyridyl]acetamide] the GI50 (BA/F3-FLT3-ITD + D835Y) was 0.0001 to 10 µM, the IC50 [1] was 0.0001 to 10 µM and the IC50 [2] was 0.0001 to 10 µM.

`COc1cc(-c2cc3cc(-c4ccc(CC(=O)Nc5cnc(OC)c(C(F)(F)F)c5)c(F)c4)cnc3[nH]2)ccn1` [Compound P-0009, 2-[2-fluoro-4-[2-(2-methoxy-4-pyridyl)-1H-pyrrolo[2,3-b]pyridin-5-yl]phenyl]-N-[6-methoxy-5-(trifluoromethyl)-3-pyridyl]acetamide] gave a GI50 (BA/F3-FLT3-ITD + D835Y) of 0.0001 to 10 µM, an IC50 [1] of 0.0001 to 10 µM and an IC50 [2] of 0.0001 to 10 µM.

`COc1ncc(NC(=O)Cc2ccc(-c3cnc4[nH]c(-c5ccc(N6CCOCC6)nc5)cc4c3)cc2F)cc1C(F)(F)F` [Compound P-0010, 2-[2-fluoro-4-[2-(6-morpholino-3-pyridyl)-1H-pyrrolo[2,3-b]pyridin-5-yl]phenyl]-N-[6-methoxy-5-(trifluoromethyl)-3-pyridyl]acetamide] gave a GI50 (BA/F3-FLT3-ITD + D835Y) of 0.0001 to 10 µM, an IC50 [1] of 0.0001 to 10 µM and an IC50 [2] of 0.0001 to 10 µM.

For `COc1ccc(-c2cc3cc(-c4ccc(CC(=O)Nc5cnc(OC)c(C(F)(F)F)c5)cc4F)cnc3[nH]2)cn1` [Compound P-0012, 2-[3-fluoro-4-[2-(6-methoxy-3-pyridyl)-1H-pyrrolo[2,3-b]pyridin-5-yl]phenyl]-N-[6-methoxy-5-(trifluoromethyl)-3-pyridyl]acetamide], the GI50 (BA/F3-FLT3-ITD + D835Y) was 0.0001 to 10 µM, the IC50 [1] was 0.0001 to 10 µM and the IC50 [2] was 0.0001 to 10 µM.

In the case of `COc1ncc(NC(=O)Cc2ccc(-c3cnc(Nc4cnn(C(F)F)c4C)nc3)cc2)cc1C(F)(F)F` [Compound P-0039, 2-[4-[2-[[1-(difluoromethyl)-5-methyl-pyrazol-4-yl]amino]pyrimidin-5-yl]phenyl]-N-[6-methoxy-5-(trifluoromethyl)-3-pyridyl]acetamide], the GI50 (BA/F3-FLT3-ITD + D835Y) is reported as 0.0001 to 10 µM, the IC50 [1] is reported as 0.0001 to 10 µM and the IC50 [2] is reported as 0.0001 to 10 µM.

`O=C(Cc1ccc(-c2cnc3[nH]c(Cl)cc3c2)cc1F)Nc1cc(C(F)(F)F)ccn1` [Compound P-0040, 2-(4-(2-chloro-1H-pyrrolo[2,3-b]pyridin-5-yl)-2-fluorophenyl)-N-(4-(trifluoromethyl)pyridin-2-yl)acetamide] gave a GI50 (BA/F3-FLT3-ITD + D835Y) of 0.0001 to 10 µM, an IC50 [1] of 0.0001 to 10 µM and an IC50 [2] of 0.0001 to 10 µM.

`O=C(Cc1ccc(-c2cnc3[nH]c(Cl)cc3c2)cc1F)Nc1ccc(C(F)(F)F)cn1` [Compound P-0041, 2-[4-(2-chloro-1H-pyrrolo[2,3-b]pyridin-5-yl)-2-fluoro-phenyl]-N-[5-(trifluoromethyl)-2-pyridyl]acetamide] was tested, and the GI50 (BA/F3-FLT3-ITD + D835Y) was 0.0001 to 10 µM.

`CC(C)(C#N)c1ccc(NC(=O)Cc2ccc(-c3cnc4[nH]cc(F)c4c3)cc2F)cn1` [Compound P-0042, N-(6-(2-cyanopropan-2-yl)pyridin-3-yl)-2-(2-fluoro-4-(3-fluoro-1H-pyrrolo[2,3-b]pyridin-5-yl)phenyl)acetamide] showed a GI50 (BA/F3-FLT3-ITD + D835Y) of 0.0001 to 10 µM, an IC50 [1] of 0.0001 to 10 µM and an IC50 [2] of 0.0001 to 10 µM.

Work on `COc1ncc(NC(=O)Cc2ccc(-c3cnc(Nc4cn(C(F)F)nc4C)nc3)cc2)cc1C(F)(F)F` [Compound P-0054, 2-[4-[2-[[1-(difluoromethyl)-3-methyl-pyrazol-4-yl]amino]pyrimidin-5-yl]phenyl]-N-[6-methoxy-5-(trifluoromethyl)-3-pyridyl]acetamide] yielded a GI50 (BA/F3-FLT3-ITD + D835Y) of 0.0001 to 10 µM, an IC50 [1] of 0.0001 to 10 µM and an IC50 [2] of 0.0001 to 10 µM.

`O=C(Cc1ccc(-c2cnc3[nH]c(-c4ccnc(N5CCOCC5)c4)cc3c2)nc1)Nc1ccnc(C(F)(F)F)c1` [Compound P-0069, 2-[6-[2-(2-morpholino-4-pyridyl)-1H-pyrrolo[2,3-b]pyridin-5-yl]-3-pyridyl]-N-[2-(trifluoromethyl)-4-pyridyl]acetamide] gave a GI50 (BA/F3-FLT3-ITD + D835Y) of 0.0001 to 10 µM and an IC50 [1] of 0.0001 to 10 µM.

In the case of `Cn1cc(Nc2ncc(-c3ccc(CC(=O)NCc4ccc(Cl)cn4)cc3)cn2)cn1` [Compound P-0114, N-[(5-chloro-2-pyridyl)methyl]-2-[4-[2-[(1-methylpyrazol-4-yl)amino]pyrimidin-5-yl]phenyl]acetamide], the GI50 (BA/F3-FLT3-ITD + D835Y) is reported as 0.0001 to 10 µM and the IC50 [2] is reported as 0.0001 to 10 µM.

`N#Cc1ccc(-c2cc3cc(-c4ccc(CC(=O)Nc5ccnc(C(F)(F)F)c5)nc4)cnc3[nH]2)cn1` [Compound P-0184, 2-[5-[2-(6-cyano-3-pyridyl)-1H-pyrrolo[2,3-b]pyridin-5-yl]-2-pyridyl]-N-[2-(trifluoromethyl)-4-pyridyl]acetamide] showed a GI50 (BA/F3-FLT3-ITD + D835Y) of 0.0001 to 10 µM and an IC50 [2] of 0.0001 to 10 µM.

`N#Cc1cc(-c2cc3cc(-c4ccc(CC(=O)Nc5ccnc(C(F)(F)F)c5)cn4)cnc3[nH]2)ccn1` [Compound P-0185, 2-[6-[2-(2-cyano-4-pyridyl)-1H-pyrrolo[2,3-b]pyridin-5-yl]-3-pyridyl]-N-[2-(trifluoromethyl)-4-pyridyl]acetamide] gave a GI50 (BA/F3-FLT3-ITD + D835Y) of 0.0001 to 10 µM.

Work on `COc1cc(-c2cc3cc(-c4ccc(CC(=O)Nc5ccnc(C(F)(F)F)c5)cn4)cnc3[nH]2)ccn1` [Compound P-0186, 2-[6-[2-(2-methoxy-4-pyridyl)-1H-pyrrolo[2,3-b]pyridin-5-yl]-3-pyridyl]-N-[2-(trifluoromethyl)-4-pyridyl]acetamide] yielded a GI50 (BA/F3-FLT3-ITD + D835Y) of 0.0001 to 10 µM and an IC50 [1] of 0.0001 to 10 µM.

Work on `N#Cc1cc(-c2cc3cc(-c4cc(F)c(CC(=O)Nc5cc(C(F)(F)F)ccn5)cc4F)cnc3[nH]2)ccn1` [Compound P-0188, 2-[4-[2-(2-cyano-4-pyridyl)-1H-pyrrolo[2,3-b]pyridin-5-yl]-2,5-difluoro-phenyl]-N-[4-(trifluoromethyl)-2-pyridyl]acetamide] yielded a GI50 (BA/F3-FLT3-ITD + D835Y) of 0.0001 to 10 µM and an IC50 [1] of 0.0001 to 10 µM.
